Source: US20160349268A1, “STEPWISE ASSEMBLED CAPTURE COMPOUNDS COMPRISING A CLEAVABLE FUNCTION AND METHOD FOR ISOLATING AND/OR CHARACTERIZING BIOMOLECULES OR BIOMOLECULE FRAGMENTS, IN PARTICULAR PROTEINS OR PROTEIN FRAGMENTS, OF COMPLEX MIXTURES” (CAPROTEC BIOANALYTICS GMBH, priority 2014, published 2016)

Assays:
Format in all cases: physicochemical
[1] = Cleavage reaction of photo-reacted compound 11 (12) with HCl / 2-nitrobenzhydrazide, LC-MS; details: for Area/a.u. (LC-MS EIC peak): 45 μM 12, 1 h room temperature
Procedure: A solution of 75 μL 56 μM 11 (CPT727, Capture Compound bearing tetrazine as sorting function and a chemically cleavable photo-reactivity function) in 50% acetonitrile was irradiated with UV light (λmax=310 nm) for 5 min at 4° C. in the caproBox to activate the reactivity function yielding 12 (Scheme 12).
Cleavage of the photo-reacted reactivity function (15) from 12 yielding also 17 as a product (Scheme 13) was investigated under several conditions summarized in Table 5. The reaction was performed in a final volume of 10 μl for 1 h at room temperature. Each reaction mixture contained 8 μl of the above described solution of 12 (45 μM final concentration), 1 μl 100 mM or 10 mM 2-nitrobenzhydrazide in DMSO or just DMSO and 1 μl 100 mM or 10 mM HCl in water or just water. Analysis was performed by LC-MS. Integration of peak areas corresponding to the respective species is included into Table 5.

[2] = Cleavage of 1 (CPT600) after photo-reaction in solution (UV irradiation, HCl treatment, RP-HPLC UV/MS); details: BPC + All MS
Procedure: In a 100 μL PCR tube, 20 μL 73 μM 1 (CPT600) was irradiated at 4° C. for 5 min in the caproBox (310 nm version, caprotec bioanalytics GmbH, Berlin, Germany). 1.7 μL 37% HCl was added, mixed and the solution was incubated on a thermoshaker at 37° C. for 2 h. Then 100 μL Milli-Q water and 9 μL 2N NaOH were added and mixed. The resulting solution as analyzed by RP-HPLC coupled to a UV detector and a mass spectrometer (FIG. 6 and Table 2a) as described in example 1. As a control, the same sample but with only very brief incubation under acidic conditions (r.t. for about 10 s instead of 37° C. for 2 h) was prepared (FIG. 7 and Table 2b).

[3] = Cleavage of 1 (CPT600) after photo-reaction on CPG-pN3, with CPG-Ac and in-solution controls; parameters: Area: unit not given here
Procedure: 20 μL 10 mg/mL 1 (CPT600)-loaded CPG-pN3 from example 1 were transferred into a 100 μL PCR tube, centrifuged, the supernatant was discarded and 20 μL in water was added. The suspension was irradiated at 4° C. for 5 min (with re-suspending every 30 s) in the caproBox (310 nm version, caprotec bioanalytics GmbH, Berlin, Germany). 1.7 μL 37% HCl was added, mixed and the solution was incubated on a thermoshaker at 37° C. for 2 h. Then 100 μL Milli-Q water and 9 μL 2N NaOH were added and mixed. After centrifugation, the resulting supernatant was analyzed by RP-HPLC coupled to a UV detector and a mass spectrometer as described in example 1. As a control, the same sample but with only very brief incubation under acidic conditions (r.t. for about 10 s instead of 37° C. for 2 h) was prepared.
Further controls included using 1 (CPT600)-treated CPG-Ac from example 1 (short and long acid treatment) instead of 1 (CPT600)-loaded CPG-pN3 and 1 (CPT600) in solution (short and long acid treatment) as described in example 2. All six experiments were performed side-by-side.

[4] = c(HCl) 0 mM, c(2-nitrobenzhydrazide) 0 mM
[5] = c(HCl) 0 mM, c(2-nitrobenzhydrazide) 1 mM
[6] = c(HCl) 0 mM, c(2-nitrobenzhydrazide) 10 mM
[7] = c(HCl) 1 mM, c(2-nitrobenzhydrazide) 0 mM
[8] = c(HCl) 1 mM, c(2-nitrobenzhydrazide) 1 mM
[9] = c(HCl) 1 mM, c(2-nitrobenzhydrazide) 10 mM
[10] = c(HCl) 10 mM, c(2-nitrobenzhydrazide) 0 mM
[11] = c(HCl) 10 mM, c(2-nitrobenzhydrazide) 1 mM
[12] = c(HCl) 10 mM, c(2-nitrobenzhydrazide) 10 mM
[13] = 1 (CPT600) after UV irradiation and HCl 37 °C 2 h
[14] = In solution, 2 h HCl, BPC + All MS
[15] = In solution, 2 h HCl, UV 254 nm
[16] = On CPG-Ac, 2 h HCl, BPC + All MS
[17] = On CPG-pN3, 2 h HCl, BPC + All MS
[18] = CPG-Ac instead of CPG-pN3, 2 h acidic treatment
[19] = In solution, 0 h HCl, BPC + All MS
[20] = In solution, 0 h HCl, UV 254 nm

Q: For CN(N)C(=O)c1ccc(C(O)C(F)(F)F)cc1 (stereo not shown) [Compound 15], which “Area/a.u. (LC-MS EIC peak)” value [1, 4] is on record?
A: 15540301 a.u.

Q: And the “Area/a.u. (LC-MS EIC peak)” value [1, 5]?
A: 19033696 a.u.

Q: And the “Area/a.u. (LC-MS EIC peak)” value [1, 6]?
A: 20155070 a.u.

Q: And the “Area/a.u. (LC-MS EIC peak)” value [1, 7]?
A: 75526584 a.u.

Q: What about the “Area/a.u. (LC-MS EIC peak)” value [1, 8] of the same molecule?
A: 93782304 a.u.

Q: What about the “Area/a.u. (LC-MS EIC peak)” value [1, 9] of the same molecule?
A: 120971320 a.u.

Q: What about the “Area/a.u. (LC-MS EIC peak)” value [1, 10] of the same molecule?
A: 101335752 a.u.

Q: And the “Area/a.u. (LC-MS EIC peak)” value [1, 11]?
A: 119463976 a.u.

Q: What about the “Area/a.u. (LC-MS EIC peak)” value [1, 12] of the same molecule?
A: 130339744 a.u.

Q: With C#CCNC(=O)C(CO)(CO)C(=O)NCCCC[C@@H](C(=O)NCCc1ccc(NC(=O)CCCCCCC(=O)O)cc1)[N+](C)(C)C [Compound 7] as the molecule, how does the “Area (MS-peak integration)” value [2, 13] read?
A: 1798498944

Q: What about the “Area Frac. %” value [2, 13] of the same molecule?
A: 27.10%

Q: What about the “amount in supernatant of CPG bead samples compared to solution sample (base peak MS peak areas)” value ([3]; 2 h acidic treatment) of the same molecule?
A: 16.1%

Q: What about the Area [3, 14] of the same molecule?
A: 1793367808

Q: What about the “Area Frac %” value [3, 14] of the same molecule?
A: 35.46%

Q: What about the Area [3, 15] of the same molecule?
A: 15.084

Q: And the “Area Frac %” value [3, 15]?
A: 13.18%

Q: What about the Area [3, 16] of the same molecule?
A: 114680936

Q: What about the “Area Frac %” value [3, 16] of the same molecule?
A: 41.23%

Q: And the Area [3, 17]?
A: 288188416

Q: What about the “Area Frac %” value [3, 17] of the same molecule?
A: 65.33%

Q: Which “amount of cleavage fragment relative to the respective CPG-pN3 sample (UV peak areas)” value [3, 18] does the source give for O=Cc1ccc(C(O)C(F)(F)F)cc1 (stereo not shown) [Compound 6] here?
A: 8.0%

Q: And the “amount of cleavage fragment relative to the respective sample in solution (UV peak areas)” value [3, 18]?
A: 3.9%

Q: And the Area [3, 15]?
A: 63.355

Q: What about the “Area Frac %” value [3, 15] of the same molecule?
A: 55.35%

Q: And the Area ([3]; On CPG-Ac, 2 h HCl, UV 254 nm)?
A: 2.4903

Q: What about the “Area Frac %” value ([3]; On CPG-Ac, 2 h HCl, UV 254 nm) of the same molecule?
A: 30.94%

Q: What about the Area ([3]; On CPG-pN3, 2 h HCl, UV 254 nm) of the same molecule?
A: 30.9728

Q: And the “Area Frac %” value ([3]; On CPG-pN3, 2 h HCl, UV 254 nm)?
A: 85.18%

Q: And the “amount of cleavage fragment relative to the respective sample in solution (UV peak areas)” value ([3]; UV-irradiated 1 (CPT600)-loaded CPG-pN3, 2 h acidic treatment)?
A: 48.9%

Q: For Cc1nnc(-c2ccc(CN(CC(=O)NCCCCNc3ncnc4c3ncn4C3OC(CSCC[C@H](N)C(=O)O)C(O)C3O)C(=O)CC/C=N/NC(=O)c3ccccc3[N+](=O)[O-])cc2)nn1 (stereo partly shown) [Compound 17], which “Area/a.u. (LC-MS EIC peak)” value [1, 5] is on record?
A: 50293356 a.u.

Q: And the “Area/a.u. (LC-MS EIC peak)” value [1, 6]?
A: 116403456 a.u.

Q: What about the “Area/a.u. (LC-MS EIC peak)” value [1, 8] of the same molecule?
A: 623734464 a.u.

Q: And the “Area/a.u. (LC-MS EIC peak)” value [1, 9]?
A: 1157550976 a.u.

Q: And the “Area/a.u. (LC-MS EIC peak)” value [1, 11]?
A: 694334592 a.u.

Q: And the “Area/a.u. (LC-MS EIC peak)” value [1, 12]?
A: 1188207104 a.u.

Q: For C#CCNC(=O)C1(C(=O)NCCCC[C@@H](C(=O)NCCc2ccc(NC(=O)CCCCCCC(=O)O)cc2)[N+](C)(C)C)COC(c2ccc(C3(C(F)(F)F)N=N3)cc2)OC1 (stereo partly shown) [Compound 2], which “Area (MS-peak integration)” value [2, 13] is on record?
A: 167125312

Q: And the “Area Frac. %” value [2, 13]?
A: 2.52%

Q: Which “Area (MS-peak integration)” value [2, 13] does the source give for C#CCNC(=O)C1(C(=O)NCCCC[C@@H](C(=O)NCCc2ccc(NC(=O)CCCCCCC(=O)NO)cc2)[N+](C)(C)C)COC(c2ccc(C(O)C(F)(F)F)cc2)OC1 (stereo partly shown) [Compound 3] here?
A: 432395200

Q: And the “Area Frac. %” value [2, 13]?
A: 6.52%

Q: What about the “Area (MS-peak integration)” value ([2]; 1 (CPT600) after UV irradiation, very brief acid (r.t. about 10 s, control)) of the same molecule?
A: 3091667200

Q: What about the Area [3, 19] of the same molecule?
A: 2114062848

Q: What about the “Area Frac %” value [3, 19] of the same molecule?
A: 100.00%

Q: And the Area [3, 20]?
A: 31.679

Q: And the “Area Frac %” value [3, 20]?
A: 100.00%

Q: With C#CCNC(=O)C1(C(=O)NCCCC[C@@H](C(=O)NCCc2ccc(NC(=O)CCCCCCC(=O)O)cc2)[N+](C)(C)C)COC(c2ccc(C(O)C(F)(F)F)cc2)OC1 (stereo partly shown) [Compound 4] as the molecule, how does the “Area (MS-peak integration)” value [2, 13] read?
A: 386267200

Q: What about the “Area Frac. %” value [2, 13] of the same molecule?
A: 5.82%

Q: Which fraction cleaved ([1]; 1 mM or higher concentration of HCl alone, room temperature, within 1 h) does the source give for Cc1nnc(-c2ccc(CN(CC(=O)NCCCCNc3ncnc4c3ncn4C3OC(CSCC[C@H](N)C(=O)O)C(O)C3O)C(=O)CC/C=N/N(C)C(=O)c3ccc(C(O)C(F)(F)F)cc3)cc2)nn1 (stereo partly shown) [Compound 12] here?
A: more than 60%

Q: And the “detection of starting material” value ([1]; 10 mM HCl and 1 mM or 10 mM 2-nitrobenzhydrazide)?
A: no longer detected

Q: What about the “Area/a.u. (LC-MS EIC peak)” value [1, 4] of the same molecule?
A: 865231808 a.u.

Q: What about the “Area/a.u. (LC-MS EIC peak)” value [1, 5] of the same molecule?
A: 601044672 a.u.

Q: And the “Area/a.u. (LC-MS EIC peak)” value [1, 6]?
A: 616590720 a.u.

Q: And the “Area/a.u. (LC-MS EIC peak)” value [1, 7]?
A: 315121856 a.u.

Q: And the “Area/a.u. (LC-MS EIC peak)” value [1, 8]?
A: 130056936 a.u.

Q: What about the “Area/a.u. (LC-MS EIC peak)” value [1, 9] of the same molecule?
A: 5361744 a.u.

Q: And the “Area/a.u. (LC-MS EIC peak)” value [1, 10]?
A: 17781000 a.u.
